From PMC11247487, “Discovery of Dual MER/AXL Kinase Inhibitors as Bifunctional Small Molecules for Inhibiting Tumor Growth and Enhancing Tumor Immune Microenvironment” (Journal of Medicinal Chemistry, 2024)
pIC50: −log10 of the molar value.

Tests used:
MER = target: T1, MER (Homo sapiens, UniProt Q12866); experiment: MER enzyme inhibition assay (in-house Kinase-Glo); format: biochemical
T1 construct: A purified kinase (MER or AXL) was incubated with a compound or DMSO
T1 sequence (Q12866 21-999): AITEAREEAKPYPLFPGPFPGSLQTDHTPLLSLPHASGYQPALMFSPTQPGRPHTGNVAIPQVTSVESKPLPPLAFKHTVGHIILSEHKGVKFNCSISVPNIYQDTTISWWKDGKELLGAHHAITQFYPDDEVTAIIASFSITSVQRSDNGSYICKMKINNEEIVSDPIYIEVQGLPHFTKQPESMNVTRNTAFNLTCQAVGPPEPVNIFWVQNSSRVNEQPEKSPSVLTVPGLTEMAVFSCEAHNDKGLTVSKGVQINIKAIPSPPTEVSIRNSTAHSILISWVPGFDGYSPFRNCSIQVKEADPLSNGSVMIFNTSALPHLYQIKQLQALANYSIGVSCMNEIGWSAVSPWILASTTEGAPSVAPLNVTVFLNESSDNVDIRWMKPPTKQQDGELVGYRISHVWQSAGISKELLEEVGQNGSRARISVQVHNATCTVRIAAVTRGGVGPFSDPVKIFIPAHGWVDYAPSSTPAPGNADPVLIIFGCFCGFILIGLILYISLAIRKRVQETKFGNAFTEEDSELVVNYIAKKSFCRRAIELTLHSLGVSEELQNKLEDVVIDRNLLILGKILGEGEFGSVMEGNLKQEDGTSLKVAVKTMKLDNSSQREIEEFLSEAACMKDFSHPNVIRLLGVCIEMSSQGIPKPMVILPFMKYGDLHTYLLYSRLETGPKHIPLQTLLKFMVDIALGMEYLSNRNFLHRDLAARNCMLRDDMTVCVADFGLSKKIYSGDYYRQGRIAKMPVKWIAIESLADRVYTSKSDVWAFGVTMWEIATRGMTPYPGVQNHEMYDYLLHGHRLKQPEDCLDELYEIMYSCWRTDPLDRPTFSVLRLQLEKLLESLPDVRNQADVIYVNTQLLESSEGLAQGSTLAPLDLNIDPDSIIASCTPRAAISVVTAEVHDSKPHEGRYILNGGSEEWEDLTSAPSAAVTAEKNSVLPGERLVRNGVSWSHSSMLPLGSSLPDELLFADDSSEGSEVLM

AXL = target: T2, AXL (Homo sapiens, UniProt P30530); experiment: AXL enzyme inhibition assay (ADP-Glo); format: biochemical
T2 construct: A purified kinase (MER or AXL) was incubated with a compound or DMSO
T2 sequence (P30530 26-894): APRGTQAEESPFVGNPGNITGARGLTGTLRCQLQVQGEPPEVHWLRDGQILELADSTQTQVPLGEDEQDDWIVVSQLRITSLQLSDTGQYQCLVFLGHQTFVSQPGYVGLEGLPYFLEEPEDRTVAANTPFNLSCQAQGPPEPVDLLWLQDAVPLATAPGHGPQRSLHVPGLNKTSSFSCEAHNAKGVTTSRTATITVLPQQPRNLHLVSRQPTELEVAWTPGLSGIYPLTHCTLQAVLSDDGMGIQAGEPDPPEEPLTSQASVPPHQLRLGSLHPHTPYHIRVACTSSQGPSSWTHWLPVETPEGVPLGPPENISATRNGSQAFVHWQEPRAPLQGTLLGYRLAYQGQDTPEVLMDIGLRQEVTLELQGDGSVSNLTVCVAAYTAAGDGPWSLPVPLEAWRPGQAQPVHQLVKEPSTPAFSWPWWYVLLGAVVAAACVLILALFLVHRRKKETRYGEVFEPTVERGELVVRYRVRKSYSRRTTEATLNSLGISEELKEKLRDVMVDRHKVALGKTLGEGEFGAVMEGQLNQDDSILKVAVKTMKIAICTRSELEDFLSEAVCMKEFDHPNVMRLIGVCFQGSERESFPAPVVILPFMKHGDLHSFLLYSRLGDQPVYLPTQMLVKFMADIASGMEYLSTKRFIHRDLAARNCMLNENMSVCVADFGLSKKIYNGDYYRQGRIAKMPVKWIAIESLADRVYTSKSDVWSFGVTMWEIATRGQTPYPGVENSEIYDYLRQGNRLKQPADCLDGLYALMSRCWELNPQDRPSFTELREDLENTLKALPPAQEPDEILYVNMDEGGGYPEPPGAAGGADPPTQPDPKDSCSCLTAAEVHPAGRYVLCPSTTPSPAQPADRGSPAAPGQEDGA

EGFR^WT = EGFR^WT (Homo sapiens, UniProt P00533); experiment: EGFR^WT in-house Kinase-Glo assay; format: biochemical; settings: 1 μM
EGFR^DM (T790M/L858R) = EGFR^DM (T790M/L858R) (Homo sapiens, UniProt P00533, L858R/T790M); experiment: EGFR^DM in-house Kinase-Glo assay; format: biochemical; settings: 1 μM
Ba/F3-MER cells = experiment: Cell viability assay (MTS); format: cell-based; settings: 72 h

N^1-(4-Fluorophenyl)-N^1-{4-[(6-phenylfuro[2,3-d]pyrimidin-4-yl)oxy]phenyl}cyclopropane-1,1-dicarboxamide [Compound 14]
MER inh. @ 1 μM (MER): 4% | AXL inh. @ 1 μM (AXL): 53% | EGFR^WT inh. @ 1 μM (EGFR^WT): 4% | EGFR^DM inh. @ 1 μM (EGFR^DM (T790M/L858R)): 1% | pIC50 (Ba/F3-MER cells): 5.44

Nc1cccc(-c2c(Br)oc3ncnc(Oc4ccc(NC(=O)c5cccn(-c6ccc(F)cc6)c5=O)cc4)c23)c1 [Compound 19, N-(4-{[5-(3-Aminophenyl)-6-bromofuro[2,3-d]pyrimidin-4-yl]oxy}phenyl)-1-(4-fluorophenyl)-2-oxo-1,2-dihydropyridine-3-carboxamide]
pIC50 (Ba/F3-MER cells): 6.37

Cc1oc2ncnc(Oc3ccc(NC(=O)c4cccn(-c5ccc(F)cc5)c4=O)cc3)c2c1-c1cccc(N)c1 [Compound 20, N-(4-{[5-(3-Aminophenyl)-6-methylfuro[2,3-d]pyrimidin-4-yl]oxy}phenyl)-1-(4-fluorophenyl)-2-oxo-1,2-dihydropyridine-3-carboxamide]
pIC50 (Ba/F3-MER cells): 6.68

Cn1cc(-c2oc3ncnc(Oc4ccc(NC(=O)c5cccn(-c6ccc(F)cc6)c5=O)cc4)c3c2-c2ccc(N)cc2)cn1 [Compound 37, N-(4-{[5-(4-Aminophenyl)-6-(1-methyl-1H-pyrazol-4-yl)furo[2,3-d]pyrimidin-4-yl]oxy}phenyl)-1-(4-fluorophenyl)-2-oxo-1,2-dihydropyridine-3-carboxamide]
pIC50 (Ba/F3-MER cells): 8.92

CNCc1cccc(-c2c(-c3cnn(C)c3)oc3ncnc(Oc4ccc(NC(=O)c5cccn(-c6ccc(F)cc6)c5=O)cc4)c23)c1 [Compound 32, 1-(4-Fluorophenyl)-N-{4-[(5-{3-[(methylamino)methyl]phenyl}-6-(1-methyl-1H-pyrazol-4-yl)furo[2,3-d]pyrimidin-4-yl)oxy]phenyl}-2-oxo-1,2-dihydropyridine-3-carboxamide]
pIC50 (Ba/F3-MER cells): 8.30

CC(=O)Nc1ccc(-c2c(-c3cnn(C)c3)oc3ncnc(Oc4ccc(NC(=O)c5cccn(-c6ccc(F)cc6)c5=O)cc4)c23)cc1 [Compound 38, N-[4-({5-[4-(Acetylamino)phenyl]-6-(1-methyl-1H-pyrazol-4-yl)furo[2,3-d]pyrimidin-4-yl}oxy)phenyl]-1-(4-fluorophenyl)-2-oxo-1,2-dihydropyridine-3-carboxamide]
pIC50 (Ba/F3-MER cells): 9.40

N^1-{4-[(5,6-Diphenylfuro[2,3-d]pyrimidin-4-yl)oxy]phenyl}-N^1-(4-fluorophenyl)cyclopropane-1,1-dicarboxamide [Compound 13]
MER inh. @ 1 μM (MER): 41% | AXL inh. @ 1 μM (AXL): 98% | EGFR^WT inh. @ 1 μM (EGFR^WT): 3% | EGFR^DM inh. @ 1 μM (EGFR^DM (T790M/L858R)): 2% | pIC50 (Ba/F3-MER cells): 6.18

Cn1cc(-c2oc3ncnc(Oc4ccc(NC(=O)c5cccn(-c6ccc(F)cc6)c5=O)cc4)c3c2-c2ccc(N3CCNCC3)cc2)cn1 [Compound 40, 1-(4-Fluorophenyl)-N-[4-({6-(1-methyl-1H-pyrazol-4-yl)-5-[4-(piperazin-1-yl)phenyl]furo[2,3-d]pyrimidin-4-yl}oxy)phenyl]-2-oxo-1,2-dihydropyridine-3-carboxamide]
pIC50 (MER): 8.70 | pIC50 (AXL): 8.10 | pIC50 (Ba/F3-MER cells): 8.80

Nc1cccc(-c2c(-c3ccsc3)oc3ncnc(Oc4ccc(NC(=O)c5cccn(-c6ccc(F)cc6)c5=O)cc4)c23)c1 [Compound 26, N-(4-{[5-(3-Aminophenyl)-6-(thiophen-3-yl)furo[2,3-d]pyrimidin-4-yl]oxy}phenyl)-1-(4-fluorophenyl)-2-oxo-1,2-dihydropyridine-3-carboxamide]
pIC50 (Ba/F3-MER cells): 8.35

CN(C)c1cccc(-c2c(-c3cnn(C)c3)oc3ncnc(Oc4ccc(NC(=O)c5cccn(-c6ccc(F)cc6)c5=O)cc4)c23)c1 [Compound 30, N-[4-({5-[3-(Dimethylamino)phenyl]-6-(1-methyl-1H-pyrazol-4-yl)furo[2,3-d]pyrimidin-4-yl}oxy)phenyl]-1-(4-fluorophenyl)-2-oxo-1,2-dihydropyridine-3-carboxamide]
pIC50 (Ba/F3-MER cells): 7.87

Cn1cc(-c2oc3ncnc(Oc4ccc(NC(=O)c5cccn(-c6ccc(F)cc6)c5=O)cc4)c3c2-c2ccccc2N)cn1 [Compound 36, N-(4-{[5-(2-Aminophenyl)-6-(1-methyl-1H-pyrazol-4-yl)furo[2,3-d]pyrimidin-4-yl]oxy}phenyl)-1-(4-fluorophenyl)-2-oxo-1,2-dihydropyridine-3-carboxamide]
pIC50 (Ba/F3-MER cells): 8.68

Cc1noc(C)c1-c1oc2ncnc(Oc3ccc(NC(=O)c4cccn(-c5ccc(F)cc5)c4=O)cc3)c2c1-c1cccc(N)c1 [Compound 24, N-(4-{[5-(3-Aminophenyl)-6-(3,5-dimethyl-1,2-oxazol-4-yl)furo[2,3-d]pyrimidin-4-yl]oxy}phenyl)-1-(4-fluorophenyl)-2-oxo-1,2-dihydropyridine-3-carboxamide]
pIC50 (Ba/F3-MER cells): 5.98

Nc1cccc(-c2c(-c3cn[nH]c3)oc3ncnc(Oc4ccc(NC(=O)c5cccn(-c6ccc(F)cc6)c5=O)cc4)c23)c1 [Compound 21, N-(4-{[5-(3-Aminophenyl)-6-(1H-pyrazol-4-yl)furo[2,3-d]pyrimidin-4-yl]oxy}phenyl)-1-(4-fluorophenyl)-2-oxo-1,2-dihydropyridine-3-carboxamide]
pIC50 (Ba/F3-MER cells): 7.97

Cn1cc(-c2cc3c(Oc4ccc(NC(=O)c5cccn(-c6ccc(F)cc6)c5=O)cc4)ncnc3o2)cn1 [Compound 27, 1-(4-Fluorophenyl)-N-(4-{[6-(1-methyl-1H-pyrazol-4-yl)furo[2,3-d]pyrimidin-4-yl]oxy}phenyl)-2-oxo-1,2-dihydropyridine-3-carboxamide]
pIC50 (Ba/F3-MER cells): 6.77

Nc1cccc(-c2coc3ncnc(Oc4ccc(NC(=O)c5cccn(-c6ccc(F)cc6)c5=O)cc4)c23)c1 [Compound 18, N-(4-{[5-(3-Aminophenyl)furo[2,3-d]pyrimidin-4-yl]oxy}phenyl)-1-(4-fluorophenyl)-2-oxo-1,2-dihydropyridine-3-carboxamide]
pIC50 (Ba/F3-MER cells): 6.04

Nc1cccc(-c2c(-c3cc[nH]n3)oc3ncnc(Oc4ccc(NC(=O)c5cccn(-c6ccc(F)cc6)c5=O)cc4)c23)c1 [Compound 25, N-(4-{[5-(3-Aminophenyl)-6-(1H-pyrazol-3-yl)furo[2,3-d]pyrimidin-4-yl]oxy}phenyl)-1-(4-fluorophenyl)-2-oxo-1,2-dihydropyridine-3-carboxamide]
pIC50 (Ba/F3-MER cells): 7.11

Cc1nn(C)cc1-c1oc2ncnc(Oc3ccc(NC(=O)c4cccn(-c5ccc(F)cc5)c4=O)cc3)c2c1-c1cccc(N)c1 [Compound 23, N-(4-{[5-(3-Aminophenyl)-6-(1,3-dimethyl-1H-pyrazol-4-yl)furo[2,3-d]pyrimidin-4-yl]oxy}phenyl)-1-(4-fluorophenyl)-2-oxo-1,2-dihydropyridine-3-carboxamide]
pIC50 (Ba/F3-MER cells): 8.23

CN1CCN(c2ccc(-c3c(-c4cnn(C)c4)oc4ncnc(Oc5ccc(NC(=O)c6cccn(-c7ccc(F)cc7)c6=O)cc5)c34)cc2)CC1 [Compound 41, 1-(4-Fluorophenyl)-N-[4-({5-[4-(4-methylpiperazin-1-yl)phenyl]-6-(1-methyl-1H-pyrazol-4-yl)furo[2,3-d]pyrimidin-4-yl}oxy)phenyl]-2-oxo-1,2-dihydropyridine-3-carboxamide]
pIC50 (MER): 8.24 | pIC50 (AXL): 7.80 | pIC50 (Ba/F3-MER cells): 9.15
